Source: patent US9018383B2, “Acylamino-substituted cyclic carboxylic acid derivatives and their use as pharmaceuticals” (Sanofi, priority 2009, dated 2015)

Each compound was assayed against human Edg-2 receptor (Homo sapiens, UniProt Q92633) (assay: Determination of Edg-2 receptor inhibition by FLIPR measurements (LPA-mediated calcium liberation)). Conditions: CHO cells overexpressing human Edg-2 receptor, LPA 100 nM, fluo-4 calcium fluorescence; read-out: Inhibitory concentrations IC50 for inhibition of the Edg-2 receptor.
human Edg-2 receptor, sequence (Q92633 whole entry): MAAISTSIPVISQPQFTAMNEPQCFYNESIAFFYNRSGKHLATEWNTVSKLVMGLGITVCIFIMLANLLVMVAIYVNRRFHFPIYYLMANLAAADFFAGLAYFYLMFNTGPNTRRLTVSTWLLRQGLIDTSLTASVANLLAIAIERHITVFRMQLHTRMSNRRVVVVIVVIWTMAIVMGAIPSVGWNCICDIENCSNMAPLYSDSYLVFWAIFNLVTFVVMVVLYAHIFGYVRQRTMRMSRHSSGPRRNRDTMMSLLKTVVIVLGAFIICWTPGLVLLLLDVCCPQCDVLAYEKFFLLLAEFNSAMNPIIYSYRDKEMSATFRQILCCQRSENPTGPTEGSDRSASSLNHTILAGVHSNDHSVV
Type: cell-based
Experimental: A) Determination of Edg-2 Receptor Inhibition by Fluorescence Imaging Plate Reader (FLIPR) Measurements
The inhibition of the Edg-2 receptor (LPA1 receptor) by the compounds of the invention was quantified by the inhibitory effect on the LPA-mediated calcium liberation in a cell-based calcium fluorescence assay by use of Chinese hamster ovarian (CHO) cells in which the human Edg-2 receptor was stably overexpressed (Flp-In system, Invitrogen). […] Changes in intracellular calcium were determined by fluorescence measurement with the calcium-sensitive dye fluo-4 (Invitrogen) in a fluorescence imaging plate reader (FLIPR, […]).
CHO cells stably overexpressing the human Edg-2 receptor were seeded (40.000 per well) in black clear-bottomed poly-D-lysine-coated 96 well plates (Becton Dickinson, Biocoat cellware) approximately 18-24 h prior to the experiments. Cells were grown in an incubator at 37° C., 5% carbon dioxide and 95% humidity in cell culture media based on F-12 glutamax media (Gibco, #31765) supplemented with 1% (vol/vol) penicilline/streptomycine (PAN, #P06-07100), 10% (vol/vol) fetal calf serum (FCS, PAA, #A15-151) and hygromycin B (Invitrogen, #10687-010) 300 mg/l (final concentrations).
Prior to the FLIPR experiment, cells were loaded with fluo-4 acetoxymethyl ester (fluo-4 AM, Invitrogen, #F14202) for 60 min in an incubator at 37° C., 5% carbon dioxide and 95% humidity in dye-loading buffer consisting of Hanks' Balanced Salt Solution (HBSS, Invitrogen, #14065049) supplemented with fluo-4 AM at 2 μM (all data given for final concentration), Pluronic® F-127 0.05% (vol/vol) (Invitrogen, #P-3000 MP), HEPES 20 mM (Gibco, #15630), probenecid 2.5 mM (Sigma, #P-8761) and bovine serum albumin 0.05% (BSA, Sigma, #A-6003), adjusted to pH 7.5 with sodium hydroxide. During cell loading, fluo-4 AM is cleaved by intracellular esterase resulting in trapping of the dye fluo-4 within the cells. Loading was terminated by washing of the cells in a cell washer (Tecan Power washer) three times with the buffer specified afore but without fluo-4 AM and BSA. This latter buffer was also used as the buffer in the subsequent cell fluorescence measurements.
The dye-loaded and washed cells were pre-incubated for approximately 5 min with various concentrations of the test compound added as a solution in DMSO (0.3% vol/vol maximum final concentration of DMSO), or with DMSO in the respective concentration only (positive control). Subsequent addition of LPA (18:1, 1-oleoyl-sn-glycerol 3-phosphate; 100 nM final concentration) leads to liberation of intracellular calcium from internal stores resulting in a large transient increase of the fluo-4 fluorescence signal which was monitored over approximately 3 min. The percent inhibition caused by the test compound was determined from the maximum fluorescence response after LPA addition to cells pre-incubated with the compound as compared to the maximum fluorescence response after LPA addition to cells pre-incubated with DMSO only. All fluorescence values were corrected for the baseline fluorescence values obtained with cells which were pre-incubated with DMSO only and were not treated with LPA (baseline control). All measurements were performed in triplicate. From the percent inhibitions the inhibitory concentration IC50 was determined.

Row | Structure (SMILES) | IC50
1 | COc1ccc(C(=O)NC2(C(=O)O)CCCC(=O)CC2)cc1OCCc1cccc(C)c1 (stereo not shown) [Example 52, 1-[4-Methoxy-3-(2-m-tolyl-ethoxy)-benzoylamino]-4-oxo-cycloheptanecarboxylic acid] | 1000 to 30000 nM
2 | COc1ccc(C(=O)NC2(C(=O)O)CCCC(O)CC2)cc1OCCc1cccc(C)c1 (stereo not shown) [Example 53, 4-Hydroxy-1-[4-methoxy-3-(2-m-tolyl-ethoxy)-benzoylamino]-cycloheptanecarboxylic acid] | 100 to 1000 nM
3 | COc1ccc(C(=O)NC2(C(=O)O)CCC(=O)CC2)cc1OCCc1cccc(C)c1 [Example 55, 1-[4-Methoxy-3-(2-m-tolyl-ethoxy)-benzoylamino]-4-oxo-cyclohexanecarboxylic acid] | 100 to 1000 nM
4 | COc1ccc(C(=O)NC2(C(=O)O)CCC(CO)CC2)cc1OCCc1cccc(C)c1 (stereo not shown) [Example 58, 4-Hydroxymethyl-1-[4-methoxy-3-(2-m-tolyl-ethoxy)-benzoylamino]-cyclohexanecarboxylic acid] | 1000 to 30000 nM
5 | CC(=O)c1ccc(C(=O)NC2(C(=O)O)CCCCCC2)cc1OCCc1cccc(C)c1 [Example 60, 1-[4-Acetyl-3-(2-m-tolyl-ethoxy)-benzoylamino]-cycloheptanecarboxylic acid] | 100 to 1000 nM
6 | Cc1cccc(CCOc2cc(C(=O)NC3(C(=O)O)CCCCCC3)ccc2C(C)O)c1 (stereo not shown) [Example 61, 1-[4-(1-Hydroxy-ethyl)-3-(2-m-tolyl-ethoxy)-benzoylamino]-cycloheptanecarboxylic acid] | 100 to 1000 nM
7 | Cc1cccc(CCOc2cc(C(=O)NC3(C(=O)O)CCCCCC3)ccc2Cl)c1 [Example 64, 1-[4-Chloro-3-(2-m-tolyl-ethoxy)-benzoylamino]-cycloheptanecarboxylic acid] | 100 to 1000 nM
8 | COc1ccc(C(=O)NC2(C(=O)O)CCCCCC2)c(F)c1OCCc1cccc(C)c1 [Example 69, 1-[2-Fluoro-4-methoxy-3-(2-m-tolyl-ethoxy)-benzoylamino]-cycloheptanecarboxylic acid] | 100 to 1000 nM
9 | COc1ccc(C(=O)NC2(C(=O)O)CCCCCC2)cc1OCC(O)c1cccc(C)c1 (stereo not shown) [Example 73, 1-[3-(2-Hydroxy-2-m-tolyl-ethoxy)-4-methoxy-benzoylamino]-cycloheptanecarboxylic acid] | 1000 to 30000 nM
10 | COc1ccc(C(=O)NC2(C(=O)O)CCC3CC3CC2)cc1OCCc1cccc(C)c1 (stereo not shown) [Example 75] | < 100 nM
11 | COc1ccc(C(=O)NC2(C(=O)O)CC(C)C2)cc1OCCc1cccc(C)c1 (stereo not shown) [Example 76, 1-[4-Methoxy-3-(2-m-tolyl-ethoxy)-benzoylamino]-3-methyl-cyclobutanecarboxylic acid] | < 100 nM
12 | COc1ncc(C(=O)NC2(C(=O)O)CCCCCC2)cc1OCCc1cccc(C)c1 [Example 77, 1-{[6-Methoxy-5-(2-m-tolyl-ethoxy)-pyridine-3-carbonyl]-amino}-cycloheptanecarboxylic acid] | < 100 nM
13 | COc1ncc(C(=O)NC2(C(=O)O)CCCCCCC2)cc1OCCc1cccc(C)c1 [Example 78, 1-{[6-Methoxy-5-(2-m-tolyl-ethoxy)-pyridine-3-carbonyl]-amino}-cyclooctanecarboxylic acid] | 100 to 1000 nM
14 | COc1ncc(C(=O)N[C@]2(C(=O)O)CC[C@H](C)CC2)cc1OCCc1cccc(C)c1 [Example 79, cis-1-{[6-Methoxy-5-(2-m-tolyl-ethoxy)-pyridine-3-carbonyl]-amino}-4-methyl-cyclohexanecarboxylic acid] | < 100 nM
15 | COc1ncc(C(=O)N[C@]2(C(=O)O)CC[C@@H](C)CC2)cc1OCCc1cccc(C)c1 [Example 80, trans-1-{[6-Methoxy-5-(2-m-tolyl-ethoxy)-pyridine-3-carbonyl]-amino}-4-methyl-cyclohexanecarboxylic acid] | < 100 nM
16 | COc1ncc(C(=O)N[C@]2(C(=O)O)CC[C@@H](C)CC2)cc1OCCc1cc(Cl)ccc1F [Example 81, trans-1-({5-[2-(5-Chloro-2-fluoro-phenyl)-ethoxy]-6-methoxy-pyridine-3-carbonyl}-amino)-4-methyl-cyclohexanecarboxylic acid] | < 100 nM
17 | COc1ncc(C(=O)N[C@]2(C(=O)O)CC[C@@H](C)CC2)cc1OCCc1cc(OC(F)(F)F)ccc1F [Example 82, trans-1-({5-[2-(2-Fluoro-5-trifluoromethoxy-phenyl)-ethoxy]-6-methoxy-pyridine-3-carbonyl}-amino)-4-methyl-cyclohexanecarboxylic acid] | < 100 nM
18 | COc1ncc(C(=O)N[C@]2(C(=O)O)CC[C@@H](C)CC2)cc1OCCc1ccccc1 [Example 83, trans-1-{[6-Methoxy-5-(2-phenyl-ethoxy)-pyridine-3-carbonyl]-amino}-4-methyl-cyclohexanecarboxylic acid] | < 100 nM
19 | COc1ncc(C(=O)N[C@]2(C(=O)O)CC[C@@H](C)CC2)cc1OCCc1cc(C)ccc1C [Example 84, trans-1-({5-[2-(2,5-Dimethyl-phenyl)-ethoxy]-6-methoxy-pyridine-3-carbonyl}-amino)-4-methyl-cyclohexanecarboxylic acid] | 1000 to 30000 nM

Other lines, results leading:

Row | IC50 | Structure (SMILES)
20 | < 100 nM | COc1ccc(C(=O)NC2(C(=O)O)CCC3(CC2)OCCO3)cc1OCCc1cccc(C)c1 [Example 54, 8-[4-Methoxy-3-(2-m-tolyl-ethoxy)-benzoylamino]-1,4-dioxa-spiro[4.5]decane-8-carboxylic acid]
21 | < 100 nM | C=C1CCC(NC(=O)c2ccc(OC)c(OCCc3cccc(C)c3)c2)(C(=O)O)CC1 [Example 56, 1-[4-Methoxy-3-(2-m-tolyl-ethoxy)-benzoylamino]-4-methylene-cyclohexanecarboxylic acid]
22 | < 100 nM | COc1ccc(C(=O)NC2(C(=O)O)CCC3(CC3)CC2)cc1OCCc1cccc(C)c1 [Example 57, 6-[4-Methoxy-3-(2-m-tolyl-ethoxy)-benzoylamino]-spiro[2.5]octane-6-carboxylic acid]
23 | < 100 nM | COc1ccc(C(=O)NC2(C(=O)O)CCC(CF)CC2)cc1OCCc1cccc(C)c1 (stereo not shown) [Example 59, 4-Fluoromethyl-1-[4-methoxy-3-(2-m-tolyl-ethoxy)-benzoylamino]-cyclohexanecarboxylic acid]
24 | < 100 nM | CCc1ccc(C(=O)NC2(C(=O)O)CCCCCC2)cc1OCCc1cccc(C)c1 [Example 62, 1-[4-Ethyl-3-(2-m-tolyl-ethoxy)-benzoylamino]-cycloheptanecarboxylic acid]
25 | < 100 nM | Cc1cccc(CCOc2cc(C(=O)NC3(C(=O)O)CCCCCC3)ccc2C(C)F)c1 (stereo not shown) [Example 63, 1-[4-(1-Fluoro-ethyl)-3-(2-m-tolyl-ethoxy)-benzoylamino]-cycloheptanecarboxylic acid]
26 | < 100 nM | Cc1cccc(CCOc2cc(C(=O)NC3(C(=O)O)CCCCCC3)ccc2Br)c1 [Example 65, 1-[4-Bromo-3-(2-m-tolyl-ethoxy)-benzoylamino]-cycloheptanecarboxylic acid]
27 | < 100 nM | COc1ccc(C(=O)NC2(C(=O)O)CCCC2OC)cc1OCCc1cccc(C)c1 (stereo not shown) [Example 68, 2-Methoxy-1-[4-methoxy-3-(2-m-tolyl-ethoxy)-benzoylamino]-cyclopentanecarboxylic acid]
28 | < 100 nM | COc1c(F)cc(C(=O)NC2(C(=O)O)CCCCCC2)cc1OCCc1cccc(C)c1 [Example 70, 1-[3-Fluoro-4-methoxy-5-(2-m-tolyl-ethoxy)-benzoylamino]-cycloheptanecarboxylic acid]
29 | < 100 nM | COc1ccc(C(=O)NC2(C(=O)O)CCCCCC2)cc1OCC(F)(F)c1ccccc1 [Example 71, 1-[3-(2,2-Difluoro-2-phenyl-ethoxy)-4-methoxy-benzoylamino]-cycloheptanecarboxylic acid]
30 | < 100 nM | COc1ccc(C(=O)NC2(C(=O)O)CCCCCC2)cc1CCCc1cccc(C)c1 [Example 72, 1-[4-Methoxy-3-(3-m-tolyl-propyl)-benzoylamino]-cycloheptanecarboxylic acid]
31 | < 100 nM | COc1ccc(C(=O)NC2(C(=O)O)CCC=CCC2)cc1OCCc1cccc(C)c1 [Example 74, 1-[4-Methoxy-3-(2-m-tolyl-ethoxy)-benzoylamino]-cyclohept-4-enecarboxylic acid]
